Our source for the IC50 values is patent publication US10538555B2, “Macrocyclic inhibitors of the PD-1/PD-L1 and CD80(B7-1)/PD-L1 protein/protein interactions” (BRISTOL-MYERS SQUIBB COMPANY, priority 2014, dated 2020).

Read-outs that look alike come from different tables or passages of the source. Where a SMILES comes first, the peptide text is derived from it. Bridges are numbered along the chain shown (N, C = ends). [ ]: non-standard residue; d: D form. ξ: configuration not given here. Phe(3,4,5-F3) = N[C@@H](Cc1cc(F)c(F)c(F)c1)C(=O)O; d(cisHyp) = O=C(O)[C@H]1C[C@@H](O)CN1; Bta = N[C@@H](Cc1csc2ccccc12)C(=O)O; Hyp = O=C(O)[C@@H]1C[C@@H](O)CN1; NMeF = CN[C@@H](Cc1ccccc1)C(=O)O; dHyp = O=C(O)[C@H]1C[C@H](O)CN1; NMeNle = CCCC[C@H](NC)C(=O)O; hSer = N[C@@H](CCO)C(=O)O; NMeA = CN[C@@H](C)C(=O)O; Orn = NCCC[C@H](N)C(=O)O; ξC = NC(CS)C(=O)O

The experiment deals with T1, Human PD-L1/PD-1 (Homo sapiens, UniProt Q9NZQ7).
T1 construct: TVMV protease cleavage site (C); made in house; host or cells: HEK293T cells
T1 sequence (Q9NZQ7 with tags, fused parts or gaps): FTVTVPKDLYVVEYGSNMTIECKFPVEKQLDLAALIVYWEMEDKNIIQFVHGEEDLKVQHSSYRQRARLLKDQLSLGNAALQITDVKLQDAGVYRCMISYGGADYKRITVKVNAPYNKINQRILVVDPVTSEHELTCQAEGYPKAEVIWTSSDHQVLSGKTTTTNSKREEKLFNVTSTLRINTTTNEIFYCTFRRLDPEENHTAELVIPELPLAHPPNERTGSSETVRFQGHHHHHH
Nature of the experiment: HTRF Human PD-L1/PD-1 binding assay (PD-1-Ig/PD-L1-His). Conditions: PD-L1-His 10 nM, PD-1-Ig 20 nM. The method, boiled down:
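Truncated Fc-fused human PD-1 (aa 25-167) at 20 nM and His-tagged PD-L1 (aa 18-239) at 10 nM final are used, with peptides preincubated 15 min with PD-L1. Detection uses europium-cryptate anti-Ig and APC anti-His antibodies; 665/620 nm ratio.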

Setting [1] is: class symbol, read-out: HTRF Human PD-L1/PD-1 Binding Assay IC50 Range.
Where [2] appears, read: read-out: HTRF Human PD-L1/PD-1 Binding Assay IC50.

For `CCCC[C@H]1C(=O)N2C[C@H](O)C[C@@H]2C(=O)N[C@@H](CC(=O)O)C(=O)N[C@@H](C(C)C)C(=O)N(C)[C@@H](Cc2ccccc2)C(=O)N[C@@H](Cc2ccc(O)cc2)C(=O)N2C[C@@H](O)C[C@@H]2C(=O)N[C@@H](Cc2c[nH]c3ccccc23)C(=O)N[C@@H](Cc2ccc(O)cc2)C(=O)N[C@@H](CCCN)C(=O)N[C@H](C(=O)NCC(N)=O)CSCC(=O)N[C@@H](Cc2cc(F)c(F)c(F)c2)C(=O)N(C)[C@@H](Cc2ccccc2)C(=O)N1C` [Example 9372] ({CH2CO}-[Phe(3,4,5-F3)][NMeF][NMeNle][d(cisHyp)]DV[NMeF]Y[dHyp]WY[Orn]CG-NH2; thioether N-13), under setting [1], the IC50 lay within 1 to 9.9 nM.
The same measure, in the same setting: to `CCCC[C@H]1C(=O)N2C[C@H](O)C[C@@H]2C(=O)N[C@@H](CC(=O)O)C(=O)N[C@@H](C(C)C)C(=O)N(C)[C@@H](Cc2ccccc2)C(=O)N[C@@H](CCC(=O)O)C(=O)N2C[C@@H](O)C[C@@H]2C(=O)N[C@@H](Cc2c[nH]c3ccccc23)C(=O)N[C@@H](Cc2ccc(O)cc2)C(=O)N[C@@H](CC(C)C)C(=O)N[C@H](C(=O)NCC(N)=O)CSCC(=O)N[C@@H](Cc2cc(F)c(F)c(F)c2)C(=O)N(C)[C@@H](Cc2ccccc2)C(=O)N1C` [Example 9373] ({CH2CO}-[Phe(3,4,5-F3)][NMeF][NMeNle][d(cisHyp)]DV[NMeF]E[dHyp]WYLCG-NH2; thioether N-13) belongs 10 to 99.9 nM; to `CCCC[C@H]1C(=O)N2C[C@H](O)C[C@@H]2C(=O)N[C@@H](CC(=O)O)C(=O)N[C@@H](C(C)C)C(=O)N(C)[C@@H](Cc2ccccc2)C(=O)N[C@@H](CCC(=O)O)C(=O)N2C[C@@H](O)C[C@@H]2C(=O)N[C@@H](Cc2c[nH]c3ccccc23)C(=O)N[C@@H](Cc2ccc(O)cc2)C(=O)N[C@@H](CCCN)C(=O)N[C@H](C(=O)NCC(N)=O)CSCC(=O)N[C@@H](Cc2cc(F)c(F)c(F)c2)C(=O)N(C)[C@@H](Cc2ccccc2)C(=O)N1C` [Example 9374] ({CH2CO}-[Phe(3,4,5-F3)][NMeF][NMeNle][d(cisHyp)]DV[NMeF]E[dHyp]WY[Orn]CG-NH2; thioether N-13), 10 to 99.9 nM.
On to `CCCC[C@H]1C(=O)N(C)[C@@H](CCCC)C(=O)N[C@@H](CCCNC(=N)N)C(=O)NC(C(=O)NCC(N)=O)CSCC(=O)N[C@@H](Cc2ccc(O)cc2)C(=O)N(C)[C@@H](C)C(=O)N[C@@H](CC(N)=O)C(=O)N2CCC[C@H]2C(=O)N[C@@H](CC(N)=O)C(=O)N[C@@H](CC(N)=O)C(=O)N2C[C@H](O)C[C@H]2C(=O)N[C@@H](Cc2c[nH]c3ccccc23)C(=O)N[C@@H](CO)C(=O)N[C@@H](Cc2csc3ccccc23)C(=O)N1C` (stereo partly drawn) [Example 10012] ({CH2CO}-Y[NMeA]NPNN[Hyp]WS[Bta][NMeNle][NMeNle]R[ξC]G-NH2; thioether N-14), for which, under setting [1], the IC50 was in the range of 10 to 99.9 nM.
On to `CCCC[C@H]1C(=O)N(C)[C@@H](CCCC)C(=O)N[C@@H](CCCNC(=N)N)C(=O)NC(C(=O)NCC(N)=O)CSCC(=O)N[C@@H](Cc2ccc(O)cc2)C(=O)N(C)[C@@H](C)C(=O)N[C@@H](CC(N)=O)C(=O)N2CCC[C@H]2C(=O)N[C@@H](CC(N)=O)C(=O)N[C@@H](CC(N)=O)C(=O)N2CCC[C@H]2C(=O)N[C@@H](Cc2c[nH]c3ccccc23)C(=O)N[C@@H](CO)C(=O)N[C@@H](Cc2c[nH]c3ccccc23)C(=O)N1C` (stereo partly drawn) [Example 10013] ({CH2CO}-Y[NMeA]NPNNPWSW[NMeNle][NMeNle]R[ξC]G-NH2; thioether N-14), for which, under setting [2], the IC50 was 63.4 nM.
For the compound `CCCC[C@H]1C(=O)N(C)[C@@H](CCCC)C(=O)N[C@@H](CCCNC(=N)N)C(=O)NC(C(=O)NCC(N)=O)CSCC(=O)N[C@@H](Cc2ccc(O)cc2)C(=O)N(C)[C@@H](C)C(=O)N[C@@H](CC(N)=O)C(=O)N2CCC[C@H]2C(=O)N[C@@H](CC(N)=O)C(=O)N[C@@H](CC(N)=O)C(=O)N2C[C@H](O)C[C@H]2C(=O)N[C@@H](Cc2c[nH]c3ccccc23)C(=O)N[C@@H](CO)C(=O)N[C@@H](Cc2c[nH]c3ccccc23)C(=O)N1C` (stereo partly drawn) [Example 10014] ({CH2CO}-Y[NMeA]NPNN[Hyp]WSW[NMeNle][NMeNle]R[ξC]G-NH2; thioether N-14), under setting [1], the IC50 was 10 to 99.9 nM.
Same read-out and setting: to `CCCC[C@H]1C(=O)N(C)[C@@H](CCCC)C(=O)N[C@@H](CCCNC(=N)N)C(=O)NC(C(=O)NCC(N)=O)CSCC(=O)N[C@@H](Cc2ccc(O)cc2)C(=O)N(C)[C@@H](C)C(=O)N[C@@H](CC(N)=O)C(=O)N2CCC[C@H]2C(=O)N[C@@H](CO)C(=O)N[C@@H](CO)C(=O)N2CCC[C@H]2C(=O)N[C@@H](Cc2c[nH]c3ccccc23)C(=O)N[C@@H](CO)C(=O)N[C@@H](Cc2csc3ccccc23)C(=O)N1C` (stereo partly drawn) [Example 10015] ({CH2CO}-Y[NMeA]NPSSPWS[Bta][NMeNle][NMeNle]R[ξC]G-NH2; thioether N-14) belongs 1 to 9.9 nM; to `CCCC[C@H]1C(=O)N(C)[C@@H](CCCC)C(=O)N[C@@H](CCCNC(=N)N)C(=O)NC(C(=O)NCC(N)=O)CSCC(=O)N[C@@H](Cc2ccc(O)cc2)C(=O)N(C)[C@@H](C)C(=O)N[C@@H](CC(N)=O)C(=O)N2CCC[C@H]2C(=O)N[C@@H](CO)C(=O)N[C@@H](CO)C(=O)N2C[C@H](O)C[C@H]2C(=O)N[C@@H](Cc2c[nH]c3ccccc23)C(=O)N[C@@H](CO)C(=O)N[C@@H](Cc2csc3ccccc23)C(=O)N1C` (stereo partly drawn) [Example 10016] ({CH2CO}-Y[NMeA]NPSS[Hyp]WS[Bta][NMeNle][NMeNle]R[ξC]G-NH2; thioether N-14), 10 to 99.9 nM.
Same read-out and setting: to `CCCC[C@H]1C(=O)N(C)[C@@H](CCCC)C(=O)N[C@@H](CCCNC(=N)N)C(=O)NC(C(=O)NCC(N)=O)CSCC(=O)N[C@@H](Cc2ccc(O)cc2)C(=O)N(C)[C@@H](C)C(=O)N[C@@H](CC(N)=O)C(=O)N2CCC[C@H]2C(=O)N[C@@H](CO)C(=O)N[C@@H](CO)C(=O)N2CCC[C@H]2C(=O)N[C@@H](Cc2c[nH]c3ccccc23)C(=O)N[C@@H](CO)C(=O)N[C@@H](Cc2c[nH]c3ccccc23)C(=O)N1C` (stereo partly drawn) [Example 10017] ({CH2CO}-Y[NMeA]NPSSPWSW[NMeNle][NMeNle]R[ξC]G-NH2; thioether N-14) belongs 10 to 99.9 nM; to `CCCC[C@H]1C(=O)N(C)[C@@H](CCCC)C(=O)N[C@@H](CCCNC(=N)N)C(=O)NC(C(=O)NCC(N)=O)CSCC(=O)N[C@@H](Cc2ccc(O)cc2)C(=O)N(C)[C@@H](C)C(=O)N[C@@H](CC(N)=O)C(=O)N2CCC[C@H]2C(=O)N[C@@H](CO)C(=O)N[C@@H](CO)C(=O)N2C[C@H](O)C[C@H]2C(=O)N[C@@H](Cc2c[nH]c3ccccc23)C(=O)N[C@@H](CO)C(=O)N[C@@H](Cc2c[nH]c3ccccc23)C(=O)N1C` (stereo partly drawn) [Example 10018] ({CH2CO}-Y[NMeA]NPSS[Hyp]WSW[NMeNle][NMeNle]R[ξC]G-NH2; thioether N-14), 10 to 99.9 nM.
In the case of `CCCC[C@H]1C(=O)N(C)[C@@H](CCCC)C(=O)N[C@@H](CCCNC(=N)N)C(=O)NC(C(=O)NCC(N)=O)CSCC(=O)N[C@@H](Cc2ccc(O)cc2)C(=O)N(C)[C@@H](C)C(=O)N[C@@H](CC(N)=O)C(=O)N2CCC[C@H]2C(=O)N[C@@H](CCO)C(=O)N[C@@H](CCO)C(=O)N2CCC[C@H]2C(=O)N[C@@H](Cc2c[nH]c3ccccc23)C(=O)N[C@@H](CO)C(=O)N[C@@H](Cc2csc3ccccc23)C(=O)N1C` (stereo partly drawn) [Example 10019] ({CH2CO}-Y[NMeA]NP[hSer][hSer]PWS[Bta][NMeNle][NMeNle]R[ξC]G-NH2; thioether N-14), the IC50 under setting [1] was in the range of 10 to 99.9 nM.
Still for that read-out and setting: to `CCCC[C@H]1C(=O)N(C)[C@@H](CCCC)C(=O)N[C@@H](CCCNC(=N)N)C(=O)NC(C(=O)NCC(N)=O)CSCC(=O)N[C@@H](Cc2ccc(O)cc2)C(=O)N(C)[C@@H](C)C(=O)N[C@@H](CC(N)=O)C(=O)N2CCC[C@H]2C(=O)N[C@@H](CCO)C(=O)N[C@@H](CCO)C(=O)N2CCC[C@H]2C(=O)N[C@@H](Cc2c[nH]c3ccccc23)C(=O)N[C@@H](CO)C(=O)N[C@@H](Cc2csc3ccccc23)C(=O)N1C` (stereo partly drawn) [Example 10020] ({CH2CO}-Y[NMeA]NP[hSer][hSer]PWS[Bta][NMeNle][NMeNle]R[ξC]G-NH2; thioether N-14) belongs 1 to 9.9 nM; to `CCCC[C@H]1C(=O)N(C)[C@@H](CCCC)C(=O)N[C@@H](CCCNC(=N)N)C(=O)NC(C(=O)NCC(N)=O)CSCC(=O)N[C@@H](Cc2ccc(O)cc2)C(=O)N(C)[C@@H](C)C(=O)N[C@@H](CC(N)=O)C(=O)N2CCC[C@H]2C(=O)N[C@@H](CCO)C(=O)N[C@@H](CCO)C(=O)N2CCC[C@H]2C(=O)N[C@@H](Cc2c[nH]c3ccccc23)C(=O)N[C@@H](CO)C(=O)N[C@@H](Cc2c[nH]c3ccccc23)C(=O)N1C` (stereo partly drawn) [Example 10021] ({CH2CO}-Y[NMeA]NP[hSer][hSer]PWSW[NMeNle][NMeNle]R[ξC]G-NH2; thioether N-14), 10 to 99.9 nM.
Regarding `CCCC[C@H]1C(=O)N(C)[C@@H](CCCC)C(=O)N[C@@H](CCCNC(=N)N)C(=O)NC(C(=O)NCC(N)=O)CSCC(=O)N[C@@H](Cc2ccc(O)cc2)C(=O)N(C)[C@@H](C)C(=O)N[C@@H](CC(N)=O)C(=O)N2CCC[C@H]2C(=O)N[C@@H](CCO)C(=O)N[C@@H](CO)C(=O)N2CCC[C@H]2C(=O)N[C@@H](Cc2c[nH]c3ccccc23)C(=O)N[C@@H](CO)C(=O)N[C@@H](Cc2csc3ccccc23)C(=O)N1C` (stereo partly drawn) [Example 10022] ({CH2CO}-Y[NMeA]NP[hSer]SPWS[Bta][NMeNle][NMeNle]R[ξC]G-NH2; thioether N-14), the IC50 under setting [2] stood at 134 nM.
As to `CCCC[C@H]1C(=O)N(C)[C@@H](CCCC)C(=O)N[C@@H](CCCNC(=N)N)C(=O)NC(C(=O)NCC(N)=O)CSCC(=O)N[C@@H](Cc2ccc(O)cc2)C(=O)N(C)[C@@H](C)C(=O)N[C@@H](CC(N)=O)C(=O)N2CCC[C@H]2C(=O)N[C@@H](CCO)C(=O)N[C@@H](CO)C(=O)N2C[C@H](O)C[C@H]2C(=O)N[C@@H](Cc2c[nH]c3ccccc23)C(=O)N[C@@H](CO)C(=O)N[C@@H](Cc2csc3ccccc23)C(=O)N1C` (stereo partly drawn) [Example 10023] ({CH2CO}-Y[NMeA]NP[hSer]S[Hyp]WS[Bta][NMeNle][NMeNle]R[ξC]G-NH2; thioether N-14), under setting [1], the IC50 was in the range of 10 to 99.9 nM.
